# Laboratory results: patent US20070197599A1, “HYDROXYLAMINES AND DERIVATIVES AS ANTI-ANGIOGENIC AGENTS” (priority 2006, published 2007)
# What was measured:
# [1] = In vitro stability of Compound 1 in dog plasma; assay type: in vitro ADME; details: formed from OT-551 (Compound 1, 1000 ng/mL)
# Method: (§1) The active metabolite of Compound 1 (Cyclopropanecarboxylic acid 1-hydroxy-2,2,6,6-tetramethyl-piperidin-4-yl ester) is TPH. The objective of this analysis was to determine the in vitro half-life of Compound 1 in rat, rabbit, dog, and human plasma under standardized incubation conditions.
# (§2) Compound 1 was incubated with pooled rat, rabbit, dog, and human plasma for various times under standardized incubation conditions. Pre-labeled tubes containing pooled plasma from rats, rabbits, dogs, and humans were pre-incubated in a shaking 37° C. water bath. A Compound 1 solution was added to the tubes at a final concentration of 1000 ng/mL. Time zero samples (n=5) were immediately removed and transferred into tubes containing a stabilizer solution (DTPA, acetylcysteine and ascorbic acid), the LC/MS/MS assay internal standard and methanol. […] The tubes were vortexed, placed on ice, followed by centrifugation. One hundred-μL aliquots of the supernatant were transferred into HPLC sample vials. Additional tubes (n=5 at each time point) were incubated for 5, 10, 20, 30, 60, 120, and 240 minutes at 37° C. and thereafter processed. The amount of Compound 1 and TPH in each incubated sample was quantified using validated LC/MS/MS assays.
# [2] = In vitro stability of Compound 1 in rabbit plasma; assay type: in vitro ADME; details: formed from OT-551 (Compound 1, 1000 ng/mL)
# Method: as §1, §2
# [3] = In vitro stability of Compound 1 in rat plasma; assay type: in vitro ADME; details: formed from OT-551 (Compound 1, 1000 ng/mL)
# Method: as §1, §2
# [4] = system: selenite induced cataract; details: mice; cited from earlier work
# [5] = system: VEGF-induced angiogenesis in the CAM model; experiment: VEGF-induced angiogenesis in the CAM model (TPH); assay type: in vivo, chick
# Method: (§3) Neovascularization was examined by previously described methods (see references at the end of Example 5). Ten-day-old fertilized chicken eggs were incubated at 37° C. with 55% relative humidity. In the dark with the help of candling lamp and using a hypodermic needle a small hole was punctured in the shell covering the air sac. A second hole was punctured on the wider side of the egg above an avascular area of the embryonic membrane. An artificial air sac was created below the second hole by applying gentle vacuum to the first hole using a small rubber squeeze bulb. The vacuum caused the separation of chorioallantoic membrane (CAM) from the shell. An approximately 1.0 cm^2 widow was cut in the shell over the dropped CAM with the use of a mini drill. The underlying CAM was accessed through this small window.
# (§4) Filter disks were punched using a small puncher from filter paper #1 (Whatman International, United Kingdom). Filter disks were soaked in 3 mg/ml cortisone acetate solution (95% ethanol and water) and air-dried under sterile condition. For inducing angiogenesis, sterile filter disks were saturated with bFGF (1 μg/ml) or other pro-angiogenesis factors and control disks were saturated with PBS without Calcium and Magnesium.
# (§5) Using sterile forceps one filter/CAM was placed from the window. The window was sealed with Highland brand transparent tape. After 24 hr, 10-25 µl of test agent (inhibitor) was injected intravenously or added topically into the CAM membrane of bFGF or other pro-angiogenesis factors stimulated CAMs. • Control filter disks received PBS without Calcium and Magnesium. • After 48 hr, CAM tissue directly beneath filter disk was harvested and placed in a 35-mm Petri dish. Eight-Ten eggs/treatment group was used.
# (§6) A pro-angiogenic agent (see Examples, below) was added to induce new blood vessel branches on the CAM of 10-day old embryos. Sterile disks of #1 filter paper (Whatman International, United Kingdom) were pre-treated with 3 mg/ml cortisone acetate, and air dried under sterile conditions. The disks were then suspended in PBS (Phosphate Buffered Saline) and placed on growing CAMs. Filters treated with TPH (TEMPOL-H) or TEMPOL and/or H2O2 or TPH and/or bFGF or VEGF were placed on the first day of the 3-day incubation.
# (§7) Digital Images and Microscopic analysis of CAM sections: CAM sections from Petri dish were examined using SV6 stereomicroscope (Karl Zeiss) at 50× magnification. Digital images were captured using a 3-CCD color video camera system (Toshiba America, New York, N.Y.). These images were analyzed using Image-Pro Plus software (Media Cybernetics). The number of branch points in blood vessels within the circular region superimposed to the area of a filter disk was counted for each section. After incubation at 37° C. with 55% relative humidity for 3 days, the CAM tissue directly beneath each filter disk was resected from control and treated CAM samples. Tissues were washed three times with PBS. Sections were placed in a 35-mm Petri dish (Nalge Nunc; Rochester, N.Y.) and were examined under a SV6 stereomicroscope (Karl Zeiss; Thornwood, N.Y.) at 50× magnification. Digital images of CAM sections adjacent to filters were collected using a 3-CCD color video camera system (Toshiba America; New York, N.Y.) and analyzed with the Image-Pro Plus software (Media Cybernetics; Silver Spring, Md.). The number of vessel branch points contained in a circular region equal to the area of a filter disk was counted for each section. Percent inhibition data are expressed as the quotient of the experimental value minus the negative control value divided by the difference between the positive control value and the negative control value. One image was counted in each CAM preparation, and findings from eight CAM preparations were analyzed for each treatment condition. In addition, each experiment was performed three times. […]
# [6] = system: bFGF-induced angiogenesis in the CAM model; experiment: bFGF-induced angiogenesis in the CAM model (TPH); assay type: in vivo, chick
# Method: as §3, §4, §5, §6, §7
compound,measurement,setting,value
CC1(C)CC(O)CC(C)(C)N1O [TPH],Concentration of TPH in plasma,[1]; incubation 0 min,0.00 ± 0.00 ng/mL
same,Concentration of TPH in plasma,[1]; incubation 5 min,5.85 ± 0.73 ng/mL
same,Concentration of TPH in plasma,[1]; incubation 10 min,8.77 ± 0.65 ng/mL
same,Concentration of TPH in plasma,[1]; incubation 20 min,12.79 ± 0.74 ng/mL
same,Concentration of TPH in plasma,[1]; incubation 30 min,16.22 ± 0.67 ng/mL
same,Concentration of TPH in plasma,[1]; incubation 60 min,25.68 ± 1.04 ng/mL
same,Concentration of TPH in plasma,[1]; incubation 120 min,39.31 ± 1.09 ng/mL
same,Concentration of TPH in plasma,[1]; incubation 240 min,53.92 ± 1.68 ng/mL
same,Concentration of TPH in plasma,[2]; incubation 0 min,270.55 ± 35.45 ng/mL
same,Concentration of TPH in plasma,[2]; incubation 5 min,587.17 ± 21.99 ng/mL
same,Concentration of TPH in plasma,[2]; incubation 10 min,604.21 ± 21.99 ng/mL
same,Concentration of TPH in plasma,[2]; incubation 20 min,590.06 ± 40.97 ng/mL
same,Concentration of TPH in plasma,[2]; incubation 30 min,533.01 ± 117.40 ng/mL
same,Concentration of TPH in plasma,[2]; incubation 60 min,569.19 ± 32.96 ng/mL
same,Concentration of TPH in plasma,[2]; incubation 120 min,525.63 ± 10.31 ng/mL
same,Concentration of TPH in plasma,[2]; incubation 240 min,477.54 ± 40.95 ng/mL
same,Concentration of TPH in plasma,[3]; incubation 0 min,10.23 ± 1.59 ng/mL
same,Concentration of TPH in plasma,[3]; incubation 5 min,30.47 ± 1.65 ng/mL
same,Concentration of TPH in plasma,[3]; incubation 10 min,50.91 ± 2.11 ng/mL
same,Concentration of TPH in plasma,[3]; incubation 20 min,86.30 ± 3.30 ng/mL
same,Concentration of TPH in plasma,[3]; incubation 30 min,119.63 ± 7.08 ng/mL
same,Concentration of TPH in plasma,[3]; incubation 60 min,201.94 ± 4.19 ng/mL
same,Concentration of TPH in plasma,[3]; incubation 120 min,304.66 ± 7.27 ng/mL
same,Concentration of TPH in plasma,[3]; incubation 240 min,362.66 ± 7.50 ng/mL
same,prevention of selenite induced cataract,[4],effective
same,inhibition of VEGF-induced angiogenesis,[5]; 100-800 μg (Table 3),dose-dependent inhibition
same,anti-angiogenesis efficacy against VEGF-induced angiogenesis as compared with bFGF,[5]; Tables 2 and 3,much greater
same,Mean % Inhibition ± SD,[5]; VEGF (2 μg/ml) + TPH 100 μg,37.6 ± 6.9 %
same,Mean Branch points ± SD,[5]; VEGF (2 μg/ml) + TPH 100 μg,154.8 ± 7.5
same,Mean % Inhibition ± SD,[5]; VEGF (2 μg/ml) + TPH 200 μg,42 ± 3.5 %
same,Mean Branch points ± SD,[5]; VEGF (2 μg/ml) + TPH 200 μg,150 ± 3.8
same,Mean % Inhibition ± SD,[5]; VEGF (2 μg/ml) + TPH 400 μg,53.3 ± 3.3 %
same,Mean Branch points ± SD,[5]; VEGF (2 μg/ml) + TPH 400 μg,137.8 ± 3.0
same,Mean % Inhibition ± SD,[5]; VEGF (2 μg/ml) + TPH 800 μg,70.7 ± 9.1 %
same,Mean Branch points ± SD,[5]; VEGF (2 μg/ml) + TPH 800 μg,118.8 ± 9.9
same,inhibition of bFGF-induced angiogenesis,[6]; 100-400 μg,dose-dependent inhibition
same,Mean % Inhibition ± SD,[6]; bFGF (1 μg/ml) + TPH 100 μg,20 ± 12%
same,Mean Branch points ± SEM,[6]; bFGF (1 μg/ml) + TPH 100 μg,172 ± 12.4
same,Mean % Inhibition ± SD,[6]; bFGF (1 μg/ml) + TPH 200 μg,45.3 ± 7.5 %
same,Mean Branch points ± SEM,[6]; bFGF (1 μg/ml) + TPH 200 μg,147.2 ± 7.5
same,Mean % Inhibition ± SD,[6]; bFGF (1 μg/ml) + TPH 400 μg,58.7 ± 10.9 %
same,Mean Branch points ± SEM,[6]; bFGF (1 μg/ml) + TPH 400 μg,133.8 ± 10.8
same,Mean % Inhibition ± SD,[6]; bFGF (1 μg/ml) + TPH 800 μg,28.1 ± 6.8 %
same,Mean Branch points ± SEM,[6]; bFGF (1 μg/ml) + TPH 800 μg,164.2 ± 6.7
